Legend:
[1] = system: Detroit-562 cells; test: MTT cytotoxicity assay on Detroit-562 cells; format: cell-based
Source text: The SCC-25 (ATCC® CRL-1628™), Detroit-562 (ATCC® CCL-138™), and THP-1 (ATCC® TIB-202™) cells were purchased from Rio de Janeiro Cell Bank (Duque de Caxias, Brazil), and NOK-si was kindly provided by Prof. Carlos Rossa from the School of Dentistry—UNESP. All the cells were cultivated according to standard conditions. Human colorectal adenocarcinoma HCT116 cell lines (ATCC® CCL-247™) expressing p53 and its p53-null isogenic derivative (HCT116 p53^−/−) were provided by B. Vogelstein (The Johns Hopkins Kimmel Cancer Center, Baltimore, MD, USA).
Cells (NOK-si, SCC-25, and Detroit-562) were grown in a DMEM medium (Dulbecco’s Modified Eagle Medium), supplemented according to the needs of each lineage, as recommended by its cell banks, with 2 mM L-glutamine, 10% or 20% fetal bovine serum (FBS), 1% antibiotic–antimycotic solution (5 mg/mL penicillin, 5 mg/mL streptomycin, and 10 mg/mL neomycin), 4.5 g/L of glucose, and 3.7 g/L of sodium bicarbonate (NaHCO3). All cell lines were cultured in flasks at 37 °C in 5% carbon dioxide (CO2) and 95% of relative humidity. The assays were conducted between the third- and the seventh-cell passage, with sub-cultures every 3–4 days to maintain exponential growth. The cell viability was checked using the trypan blue dye exclusion assay for all experiments, where over 95% of the cells were viable at the beginning of the tests. NOK-si, SCC-25, and Detroit-562 were initially thawed and cultured in 25 cm^2 cell culture flasks. Cell growth was monitored using a microscope, and the culture medium was changed periodically. […] Absorbance was read at 562 nm using an EZ Read 400 microplate reader (Biochrom, Cambridge, UK) and ADAP 2.0 Biochrom software (version 2.0). IC50 values and graphs were calculated using Excel and Prism software (version 10.4.1). The MTT assay results were evaluated for normality using the Shapiro–Wilk test, followed by one-way ANOVA with Tukey’s post hoc test at a significance level of 5%.

[2] = Distribution coefficient (eLogD) by HPLC retention time; format: physicochemical; details: Supelco Ascentis Express RP Amide column, pH 7.4, read-out: LogD7.4
Experimental: The determination of the experimental distribution coefficient (eLogD) was based on the retention time of molecules in the stationary phase using high-performance liquid chromatography (HPLC). Chromatographic analysis was performed on a Supelco Ascentis Express RP Amide HPLC column (5 cm × 2.1 mm, 2.7 μm), with a binary gradient mobile phase consisting of (A) 5% methanol in 10 mM ammonium acetate pH 7.4 and (B) 100% methanol. The mobile phase was eluted as follows: 0 min, 95% A; 0.3 min, 100% A; 5.2 min, 0% A; 5.6 min, 0% A; 5.8 min, 100% A; 7.0 min, 100% A. The total run time was 7 min, with a sample injection volume of 5 μL. Test compounds were prepared by diluting stock solutions (1.0 mg/mL in DMSO) in a mixture of mobile phases A:B (1:1 v/v) containing an internal standard (200 nM), achieving a final concentration of 1.0 μg/mL (final DMSO concentration ≤ 1%). The prepared solutions were transferred to a 96-well plate in duplicate, which was then sealed and introduced into the autosampler for analysis. […]. These reference and control compounds were injected at the beginning and end of the experimental procedure. A calibration graph was obtained by plotting the retention times of the reference compounds against their respective LogD values. The resulting equation (y = mx + b) was used to calculate the eLogD7.4 values for the test compounds and controls. […]

## COc1cccc(C(=O)/C=C/c2cccc(B(O)O)c2)c1 [Compound 5, (E)-(3-(3-(3-methoxyphenyl)-3-oxoprop-1-en-1-yl)phenyl)boronic acid]
[1]; Homo sapiens, MTT, 24 h incubation, Detroit-562 metastatic pharyngeal cancer model
  IC50: 33.1 ± 5.1 µM
[1]; selectivity index
  SI against the metastatic cell line (NOK-si vs Detroit-562): greater than 1.7
[2]
  chromatographic logD: 3.92
